Converted amounts (≈) assume the structure as drawn. Read-outs that look alike come from different tables or passages of the source.
Tests used:
[1] = molecular target: S. aureus topoisomerase IV (Staphylococcus aureus, UniProt P0C1S7+P0C1U9); assay: S. aureus topoisomerase IV decatenation assay; format: biochemical
S. aureus RNase J2 = S. aureus RNase J2 activity; format: biochemical; details: data not shown
S. aureus RnpA = molecular target: T1, S. aureus RnpA (Staphylococcus aureus, UniProt P0A0H5); assay: S. aureus RnpA activity; format: biochemical; details: data not shown
T1 sequence (P0A0H5 1-117): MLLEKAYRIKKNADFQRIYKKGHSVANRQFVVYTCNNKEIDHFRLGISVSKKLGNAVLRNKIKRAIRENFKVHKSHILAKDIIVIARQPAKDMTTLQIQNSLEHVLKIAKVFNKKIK

S. aureus strain UAMS-1 = assay: microbe, parasite or virus in culture; format: cell-based, Staphylococcus aureus; details: for MIC: Staphylococcus aureus, UAMS1, 16 h, read-out: S. aureus MIC, strain UAMS-1, planktonic cells, MHB, 37 °C, 16 h; for fold reduction in activity compared to 4g: S. aureus MIC
S. aureus DNA gyrase = S. aureus DNA gyrase (Staphylococcus aureus, UniProt P0A0K8+P20831); assay: S. aureus DNA gyrase supercoiling assay; format: biochemical; details: tested at 100 μM, gel (Figure 4B)
Sequence of S. aureus DNA gyrase (P20831 whole entry): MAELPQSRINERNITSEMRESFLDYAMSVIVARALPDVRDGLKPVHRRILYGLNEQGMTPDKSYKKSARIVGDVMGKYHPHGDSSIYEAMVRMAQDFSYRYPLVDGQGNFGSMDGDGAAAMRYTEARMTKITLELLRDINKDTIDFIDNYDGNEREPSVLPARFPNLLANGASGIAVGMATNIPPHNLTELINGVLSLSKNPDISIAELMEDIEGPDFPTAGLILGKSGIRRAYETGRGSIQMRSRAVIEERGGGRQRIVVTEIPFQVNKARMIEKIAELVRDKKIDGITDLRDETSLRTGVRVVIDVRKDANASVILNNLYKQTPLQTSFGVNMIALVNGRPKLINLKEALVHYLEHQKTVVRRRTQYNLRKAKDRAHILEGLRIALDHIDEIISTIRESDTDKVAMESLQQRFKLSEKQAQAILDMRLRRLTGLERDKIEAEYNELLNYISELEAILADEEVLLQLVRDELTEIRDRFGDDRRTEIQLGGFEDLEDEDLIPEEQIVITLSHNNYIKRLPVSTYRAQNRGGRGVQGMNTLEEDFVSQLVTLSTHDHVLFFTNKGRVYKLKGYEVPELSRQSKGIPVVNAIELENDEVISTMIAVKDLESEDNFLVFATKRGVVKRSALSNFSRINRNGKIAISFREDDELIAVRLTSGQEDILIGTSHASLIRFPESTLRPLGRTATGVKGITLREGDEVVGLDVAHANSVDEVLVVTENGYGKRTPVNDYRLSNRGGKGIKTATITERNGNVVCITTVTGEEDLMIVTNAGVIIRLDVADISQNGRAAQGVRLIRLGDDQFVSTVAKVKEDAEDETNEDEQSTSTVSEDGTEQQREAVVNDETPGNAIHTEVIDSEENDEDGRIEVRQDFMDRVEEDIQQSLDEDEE
Sequence of S. aureus DNA gyrase (P0A0K8 whole entry): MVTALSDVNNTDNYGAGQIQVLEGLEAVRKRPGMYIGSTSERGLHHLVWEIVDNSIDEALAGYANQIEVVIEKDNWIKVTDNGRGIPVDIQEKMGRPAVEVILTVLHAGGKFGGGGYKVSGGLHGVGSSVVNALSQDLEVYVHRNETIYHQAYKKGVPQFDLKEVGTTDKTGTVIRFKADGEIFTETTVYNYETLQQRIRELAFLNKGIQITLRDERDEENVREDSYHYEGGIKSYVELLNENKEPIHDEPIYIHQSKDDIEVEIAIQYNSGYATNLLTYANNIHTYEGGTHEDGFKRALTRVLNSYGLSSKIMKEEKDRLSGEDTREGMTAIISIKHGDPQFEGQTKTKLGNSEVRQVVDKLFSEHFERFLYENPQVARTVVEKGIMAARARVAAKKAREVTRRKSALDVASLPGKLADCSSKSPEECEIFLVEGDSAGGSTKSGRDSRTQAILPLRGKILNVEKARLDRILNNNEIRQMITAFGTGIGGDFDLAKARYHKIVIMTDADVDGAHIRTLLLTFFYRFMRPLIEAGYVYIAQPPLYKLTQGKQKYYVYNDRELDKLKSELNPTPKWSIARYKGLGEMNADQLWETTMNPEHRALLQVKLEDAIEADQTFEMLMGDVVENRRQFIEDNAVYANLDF

[2] = tested on: methicillin-resistant (MRSA), vancomycin-intermediate (VISA), vancomycin-resistant (VRSA) S. aureus, fluoroquinolone resistant strains; format: cell-based, Staphylococcus aureus; details: toward MRSA, VRSA S. aureus and fluoroquinolone resistant strains
[3] = strain UAMS-1, compared to the hit 1a

Sequence of S. aureus topoisomerase IV (P0C1U9 whole entry): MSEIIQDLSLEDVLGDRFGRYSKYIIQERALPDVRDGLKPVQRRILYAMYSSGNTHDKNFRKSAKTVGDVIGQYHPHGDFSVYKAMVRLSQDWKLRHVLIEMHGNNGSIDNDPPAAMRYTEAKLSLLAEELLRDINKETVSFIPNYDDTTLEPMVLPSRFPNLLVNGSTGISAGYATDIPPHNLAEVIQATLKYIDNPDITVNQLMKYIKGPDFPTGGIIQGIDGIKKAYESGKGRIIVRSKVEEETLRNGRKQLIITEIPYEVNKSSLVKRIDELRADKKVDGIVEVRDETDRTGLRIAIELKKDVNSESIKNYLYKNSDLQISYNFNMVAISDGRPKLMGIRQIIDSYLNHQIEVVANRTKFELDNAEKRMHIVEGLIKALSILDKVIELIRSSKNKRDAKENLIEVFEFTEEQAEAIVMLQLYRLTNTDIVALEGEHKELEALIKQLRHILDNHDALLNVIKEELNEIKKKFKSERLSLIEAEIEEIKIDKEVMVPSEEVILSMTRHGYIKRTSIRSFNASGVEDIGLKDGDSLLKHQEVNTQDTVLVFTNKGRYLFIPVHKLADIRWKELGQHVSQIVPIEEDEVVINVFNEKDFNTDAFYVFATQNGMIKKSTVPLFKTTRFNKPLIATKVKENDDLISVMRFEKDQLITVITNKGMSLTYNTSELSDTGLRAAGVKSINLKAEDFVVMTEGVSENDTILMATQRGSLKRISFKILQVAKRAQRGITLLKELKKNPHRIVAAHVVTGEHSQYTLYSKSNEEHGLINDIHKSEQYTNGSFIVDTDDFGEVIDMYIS
Sequence of S. aureus topoisomerase IV (P0C1S7 whole entry): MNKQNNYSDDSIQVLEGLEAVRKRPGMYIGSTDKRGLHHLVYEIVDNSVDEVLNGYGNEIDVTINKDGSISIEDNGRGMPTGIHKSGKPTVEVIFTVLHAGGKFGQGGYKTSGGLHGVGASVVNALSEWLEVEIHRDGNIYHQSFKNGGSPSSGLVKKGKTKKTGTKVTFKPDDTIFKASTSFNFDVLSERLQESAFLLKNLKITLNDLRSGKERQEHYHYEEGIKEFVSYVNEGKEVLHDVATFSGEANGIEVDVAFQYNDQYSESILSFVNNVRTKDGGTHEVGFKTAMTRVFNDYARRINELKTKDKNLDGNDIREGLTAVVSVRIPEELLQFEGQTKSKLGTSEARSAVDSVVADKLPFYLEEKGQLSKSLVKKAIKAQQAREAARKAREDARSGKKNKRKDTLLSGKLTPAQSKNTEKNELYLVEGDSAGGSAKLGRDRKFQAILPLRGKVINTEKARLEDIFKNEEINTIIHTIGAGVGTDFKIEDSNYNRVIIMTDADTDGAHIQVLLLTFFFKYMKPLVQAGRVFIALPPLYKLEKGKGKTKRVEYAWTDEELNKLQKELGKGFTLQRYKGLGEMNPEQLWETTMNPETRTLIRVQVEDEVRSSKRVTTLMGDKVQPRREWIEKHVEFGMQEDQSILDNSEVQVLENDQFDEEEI

CC(C)(C)c1ccc(C(O)CCCN2CCC(C(O)(c3ccccc3)c3ccccc3)CC2)cc1 (stereo not drawn) [1a, 1-(4-(tert-Butyl)phenyl)-4-(4-(hydroxydiphenylmethyl)piperidin-1-yl)butan-1-ol]
topoisomerase IV inhibitory activity (in words) ([1]; dose–response gel (Figure 5A)): moderate
effect on activity of S. aureus RNase J2 (S. aureus RNase J2): did not appear to affect the activity
effect on activity of S. aureus RnpA (S. aureus RnpA): did not appear to affect the activity

COc1ccc(C(O)CCCN2CCC(C(O)(c3ccccc3)c3ccccc3)CC2)cc1 (stereo not drawn) [1h, 1-(4-Methoxyphenyl)-4-(4-(hydroxydiphenylmethyl)piperidin-1-yl)butan-1-ol]
S. aureus antimicrobial activity (in words) (S. aureus strain UAMS-1; [3]): loss of antimicrobial activity

COC(=O)c1ccc(C(O)CCCN2CCC(C(O)(c3ccccc3)c3ccccc3)CC2)cc1 (stereo not drawn) [1i, Methyl 4-(1-Hydroxy-4-(4-(hydroxydiphenylmethyl)piperidin-1-yl)butyl)benzoate]
MIC (S. aureus strain UAMS-1): > 256 mg/L
S. aureus antimicrobial activity (in words) (S. aureus strain UAMS-1; [3]): loss of antimicrobial activity
IC50 [1]: > 333 µM

O=C(O)c1ccc(C(O)CCCN2CCC(C(O)(c3ccccc3)c3ccccc3)CC2)cc1 (stereo not drawn) [1m, 4-(1-Hydroxy-4-(4-(hydroxydiphenylmethyl)piperidin-1-yl)butyl)benzoic Acid]
S. aureus antimicrobial activity (in words) (S. aureus strain UAMS-1; [3]): loss of antimicrobial activity

COC(=O)C(C)(C)c1ccc(C(O)CCCN2CCC(C(O)(c3ccccc3)c3ccccc3)CC2)cc1 (stereo not drawn) [1o, Methyl 2-(4-(1-Hydroxy-4-(4-(hydroxydiphenylmethyl)piperidin-1-yl)butyl)phenyl)-2-methylpropanoate]
S. aureus antimicrobial activity (in words) (S. aureus strain UAMS-1; [3]): loss of antimicrobial activity

CC(C)(C(=O)O)c1ccc(C(O)CCCN2CCC(C(O)(c3ccccc3)c3ccccc3)CC2)cc1 (stereo not drawn) [1p, 2-(4-(1-Hydroxy-4-(4-(hydroxydiphenylmethyl)piperidin-1-yl)butyl)phenyl)-2-methyl propanoic Acid, reference compound]
S. aureus antimicrobial activity (in words) (S. aureus strain UAMS-1): loss of antimicrobial activity

CC(C)(C)c1ccc(C(N)CCCN2CCC(C(O)(c3ccccc3)c3ccccc3)CC2)cc1 (stereo not drawn) [2g, (1-(4-Amino-4-(4-(tert-butyl)phenyl)butyl)piperidin-4-yl)diphenylmethanol]
MIC (S. aureus strain UAMS-1): 16 to 32 mg/L (≈ 34 to 68 µM)
S. aureus antimicrobial activity (in words) (S. aureus strain UAMS-1; [3]): no change in activity

CC(C)(C)c1ccc([C@@H](O)CCCN2CCC(C(O)(c3ccccc3)c3ccccc3)CC2)cc1 [2h, (S)-1-(4-(tert-Butyl)phenyl)-4-(4-(hydroxydiphenylmethyl)piperidin-1-yl)butan-1-ol]
S. aureus antimicrobial activity (in words) (S. aureus strain UAMS-1; [3]): no change in activity

CC(C)(C)c1ccc([C@H](O)CCCN2CCC(C(O)(c3ccccc3)c3ccccc3)CC2)cc1 [2i, (R)-1-(4-(tert-Butyl)phenyl)-4-(4-(hydroxydiphenylmethyl)piperidin-1-yl)butan-1-ol]
S. aureus antimicrobial activity (in words) (S. aureus strain UAMS-1; [3]): no change in activity

OC(c1ccccc1)(c1ccccc1)C1CCN(CCc2ccc(F)cc2)CC1 [3c, (1-(4-Fluorophenethyl)piperidin-4-yl)diphenylmethanol]
IC50 [1]: > 333 µM

OC(c1ccccc1)(c1ccccc1)C1CCN(CCc2ccc(Cl)cc2)CC1 [3d, (1-(4-Chlorophenethyl)piperidin-4-yl)diphenylmethanol]
MIC (S. aureus strain UAMS-1): 16 to 32 mg/L (≈ 39.4 to 78.8 µM)

OC(c1ccccc1)(c1ccccc1)C1CCN(CCc2ccc(Br)cc2)CC1 [3e, (1-(4-Bromophenethyl)piperidin-4-yl)diphenylmethanol]
MIC (S. aureus strain UAMS-1): 16 to 32 mg/L (≈ 35.5 to 71 µM)

COc1ccc(CCN2CCC(C(O)(c3ccccc3)c3ccccc3)CC2)cc1 [3g, (1-(4-Methoxyphenethyl)piperidin-4-yl)diphenylmethanol]
IC50 [1]: > 333 µM

CC(C)(C)c1ccc(CCN2CCC(C(O)(c3ccccc3)c3ccccc3)CC2)cn1 [3h, (1-(2-(6-(tert-Butyl)pyridin-3-yl)ethyl)piperidin-4-yl)diphenylmethanol]
IC50 [1]: > 333 µM

CN(C)c1ccc(CCN2CCC(C(O)(c3ccccc3)c3ccccc3)CC2)cc1 [3k, (1-(4-(Dimethylamino)phenethyl)piperidin-4-yl)diphenylmethanol]
IC50 [1]: > 333 µM

OC(c1ccccc1)(c1ccccc1)C1CCN(CCc2ccc(-c3cccnc3)cc2)CC1 [3n, (1-(4-(Pyridin-3-yl)phenethyl)piperidin-4-yl)diphenylmethanol]
MIC (S. aureus strain UAMS-1): 16 to 32 mg/L (≈ 35.7 to 71.3 µM)

CC1(c2ccc(CCN3CCC(C(O)(c4ccccc4)c4ccccc4)CC3)cc2)COC1 [3o, (1-(4-(3-Methyloxetan-3-yl)phenethyl)piperidin-4-yl)diphenylmethanol]
IC50 [1]: > 333 µM

OC(c1ccccc1)(c1ccccc1)C1CCN(Cc2ccc(-c3ccsc3)cc2)CC1 [4ff]
fold reduction in activity compared to 4g (S. aureus strain UAMS-1): 4– 8 fold

OC(c1ccccc1)(c1ccccc1)C1CCN(Cc2ccc(-c3ccccc3)cc2)CC1 [4g, (1-([1,1′-Biphenyl]-4-ylmethyl)piperidin-4-yl)diphenylmethanol]
inhibition of S. aureus DNA gyrase supercoiling activity in comparison to terfenadine (S. aureus DNA gyrase): improved inhibition

OC(c1ccccc1)(c1ccccc1)C1CCN(Cc2ccc(-c3cccs3)cc2)CC1 [4gg, (1-(4-(Thiophen-2-yl)benzyl)piperidin-4-yl)diphenylmethanol]
fold reduction in activity compared to 4g (S. aureus strain UAMS-1): 4– 8 fold

OC(c1ccccc1)(c1ccccc1)C1CCN(Cc2ccc(-c3ccoc3)cc2)CC1 [4hh, (1-(4-(Furan-3-yl)benzyl)piperidin-4-yl)diphenylmethanol]
fold reduction in activity compared to 4g (S. aureus strain UAMS-1): 4– 8 fold

OC(c1ccccc1)(c1ccccc1)C1CCN(Cc2ccc(-c3ccco3)cc2)CC1 [4ii, (1-(4-(Furan-2-yl)benzyl)piperidin-4-yl)diphenylmethanol]
fold reduction in activity compared to 4g (S. aureus strain UAMS-1): 4– 8 fold

CC(C)(C)c1ccc(C(O)CCCN2CCC(C(O)c3ccccc3)CC2)cc1 (stereo not drawn) [5a, 1-(4-(tert-Butyl)phenyl)-4-(4-(hydroxy(phenyl)methyl)piperidin-1-yl)butan-1-ol]
IC50 [1]: > 333 µM

CC(C)(C)c1ccc(C(O)CCCN2CCC(Cc3ccccc3)CC2)cc1 (stereo not drawn) [5b, 4-(4-Benzylpiperidin-1-yl)-1-(4-(tert-butyl)phenyl)butan-1-ol]
IC50 [1]: > 333 µM

CC(C)(C)c1ccc(C(O)CCCN2CCC(C(c3ccccc3)c3ccccc3)CC2)cc1 (stereo not drawn) [5e, 4-(4-Benzhydrylpiperidin-1-yl)-1-(4-(tert-butyl)phenyl)butan-1-ol]
S. aureus antimicrobial activity (in words) (S. aureus strain UAMS-1; [3]): tolerated

O=C(O)c1cn(C2CC2)c2cc(N3CCNCC3)c(F)cc2c1=O [ciprofloxacin, reference compound]
inhibition of S. aureus DNA gyrase supercoiling activity in comparison to terfenadine (S. aureus DNA gyrase): improved inhibition

OC(c1ccccc1)(c1ccccc1)C1CCN(CCCOc2ccc(-c3ccccc3)cc2)CC1 [compound 6, (1-(3-([1,1′-Biphenyl]-4-yloxy)propyl)piperidin-4-yl)diphenylmethanol]
inhibition of S. aureus DNA gyrase supercoiling activity in comparison to terfenadine (S. aureus DNA gyrase): improved inhibition
MIC [2]: approximately 2 μg/mL
